How the values were obtained:
Type in all cases: cell-based
PTGER2 (EP2) = target: T1, PTGER2 (EP2) (Homo sapiens, UniProt P43116); assay: hEP2 b-arrestin assay (PathHunter HEK 293 PTGER2 b-arrestin cells); conditions: antagonistic activity, beta-arrestin assay; read-out: hEP2 b-arr IC50
T1 construct: host or cells: HEK 293 (PathHunter PTGER2 b-arrestin cell line)
Experimental: (§1) The antagonistic activities of the compounds of formula (I) on the EP2 and EP4 receptors are determined in accordance with the following experimental method.
(§2) The assay is using the PathHunter™ HEK 293 PTGER2 and PTGER4 b-arrestin cell lines from DiscoverX. The system is based on the Enzyme Fragment Complementation Technology. Two complementing fragments of the b-galactosidase enzyme are expressed within stably transfected cells. The larger portion of b-gal, termed EA for Enzyme Acceptor, is fused to the C-terminus of b-arrestin 2. The smaller fragment, termed ProLink™ tag, is fused to PTGER2 (EP2) or PTRGER4 (EP4) at the C-terminus. Upon activation, b-arrestin is recruited which forces the interaction of ProLink and EA, allowing complementation of the two fragments of b-gal and the formation of a functional enzyme which is capable of hydrolysing the substrate and generating a chemiluminescent signal.
(§3) The HEK 293 PTGER2 b-arrestin cells (DiscoverX 93-021-4C1) are detached from culture dishes with a cell dissociation buffer (Invitrogen, 13151-014), and collected in growing medium (GM: DMEM+Glutamax-I (Invitrogen 32430)/10% FCS, 1% Penicilin/streptomycin). 5000 cells per well of a 384 well plate (white with white bottom Greiner 781080) are seeded in 20 ul per well of GM. Plate is incubated at 37° C., 5% C02 for 24 hours.
(§4) Stock solutions of test compounds are made at a concentration of 10 mM in DMSO, and serially diluted in DMSO to concentrations required for inhibition dose response curves (tested concentration range 10 μM-2 nM or 1 μM-0.2 nM).
PGE2 (Cayman 14010, stock solution: 10 mM in DMSO) is used as agonist at 5 μM final concentration, corresponding to EC80.
Five microliters of diluted compounds are transferred into the assay plate. Plate is pre-incubated 15 minutes at 37° C. Then five microliters of PGE2 (final conc. 5 μM) are transferred into the assay plate. Plate is incubated 120 minutes at 37° C.
(§5) PathHunter Glo Detection Kit components are thawed and mix according to manufacturer's instructions: 1 part Galacton Star Substrate with 5 parts Emerald II™ Solution, and 19 parts of PathHunter Cell Assay Buffer, respectively. Twelve μl of reagent are transferred to the assay plate and incubate for 1 hour at room temperature in the dark. Luminescence counts are read on a BMG Fluostar Optima reader according to manufacturer's instructions.
(§6) For each compound concentration calculate of the percentage of activity compared to DMSO control value as average±STDEV. (each concentration is measured in duplicate)
(§7) IC50 values and curves are generated with XLfit software (IDBS) using Dose-Response One Site model 203. When compounds were measured multiple times, mean values are given.

PTGER4 (EP4) = target: T2, PTGER4 (EP4) (Homo sapiens, UniProt P35408); assay: hEP4 b-arrestin assay (PathHunter HEK 293 PTGER4 b-arrestin cells); conditions: antagonistic activity, beta-arrestin assay; read-out: hEP4 b-arr IC50
T2 construct: host or cells: HEK 293 (PathHunter PTGER4 b-arrestin cell line)
T2 sequence (P35408 whole entry): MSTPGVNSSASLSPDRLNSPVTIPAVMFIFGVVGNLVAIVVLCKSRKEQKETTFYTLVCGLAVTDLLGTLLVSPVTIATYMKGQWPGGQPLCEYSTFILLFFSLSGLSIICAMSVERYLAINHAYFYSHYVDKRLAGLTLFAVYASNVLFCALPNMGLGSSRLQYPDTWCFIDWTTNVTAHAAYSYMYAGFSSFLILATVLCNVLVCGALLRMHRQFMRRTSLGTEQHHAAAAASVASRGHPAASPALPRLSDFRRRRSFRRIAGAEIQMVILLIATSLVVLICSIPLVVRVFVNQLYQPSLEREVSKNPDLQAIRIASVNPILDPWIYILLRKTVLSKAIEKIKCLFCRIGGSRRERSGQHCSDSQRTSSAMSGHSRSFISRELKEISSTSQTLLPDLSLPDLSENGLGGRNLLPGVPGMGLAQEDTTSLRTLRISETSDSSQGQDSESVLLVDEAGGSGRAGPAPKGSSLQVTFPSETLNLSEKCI
Experimental: as §1, §2
as §3, with “PTGER4” for “PTGER2”, “93-030-4C1)” for “93-021-4C1)”
as §4
PGE2 (Cayman 14010, stock solution: 100 uM in DMSO) is used as agonist at 20 nM final concentration, corresponding to EC80.
Five microliters of diluted compounds are transferred into the assay plate. Plate is pre-incubated 15 minutes at 37° C. Then five microliters of PGE2 (final conc. 20 nM) are transferred into the assay plate. Plate is incubated 120 minutes at 37° C.
as §5, §6, §7

EP4 receptor = target: T3, EP4 receptor (Homo sapiens, UniProt P35408); assay: hEP4 cAMP assay (BT549 breast cancer cells, HTRF cAMP, PGE2 stimulation); conditions: antagonistic activity, PGE2 6 nM (EC80)
T3 construct: BT549 breast cancer cells, express high endogenous EP4 levels and very low EP2 levels; host or cells: BT549 breast cancer cells
T3 sequence (P35408 whole entry): as above
Experimental: (§8) The antagonistic activities of the compounds of formula (I) on the EP2 and EP4 receptors are also determined in accordance with the following experimental method.
(§9) Human tumor cell lines expressing endogenously either EP4 or EP2 are used and cAMP accumulation in cells upon PGE2 stimulation is monitored. SF295 glioblastoma cells express high endogenous EP2 and no EP4, whereas BT549 breast cancer cells, express high endogenous EP4 levels and very low EP2 levels.
(§10) As a detection method for cAMP the HTRF (homogeneous time resolved fluorescence) Cisbio kit (HTRF cAMP dynamic 2 kit 20′000 tests Cisbio Cat. #62AM4PEC) was used, which is based on a competitive immunoassay using a Cryptate-labeled anti-cAMP antibody and d2-labeled cAMP. Native cAMP produced by cells or unlabeled cAMP (for the standard curve) compete with exogenously added d2-labeled cAMP (acceptor) for binding to monoclonal anti-cAMP-Eu3+ Cryptate (donor). A FRET signal (Fluorescence Resonance Energy Transfer) is obtained only if the labeled anti-cAMP antibody binds the d2 labelled cAMP, thus the specific signal (i.e. energy transfer) is inversely proportional to the concentration of cAMP in the standard or sample.
(§11) The BT549 cells (NCI/No. 0507282) are detached from culture dishes with a cell dissociation buffer (Invitrogen, 13151-014), and collected in growing medium (GM: RPMI1640 (Invitrogen 21875)/10% FCS, 1% Penicilin/streptomycin). Cells are counted washed and resuspended in assay buffer (AB; HBSS, 20 mM HEPES, 0.2% BSA; 2 mM IBMX). 4′000 cells in 5 μl of AB are seeded per well of a small volume 384 well plate (black with flat bottom, Greiner 784076).
Stock solutions of test compounds are made at a concentration of 10 mM in DMSO, and serially diluted in DMSO to concentrations required for inhibition dose response curves (tested concentration range 30 μM-0.4 nM; 30 μM-0.015 nM or 1 uM-0.01 nM).
PGE2 (Cayman 14010, stock solution: 6 μM in DMSO) is used as agonist at 6 nM final concentration, corresponding to EC80.
(§12) Two point five microliters of diluted compounds are transferred into the assay plate. Plate is pre-incubated 45 minutes at room temperature. Subsequently, 2.5 microliters of PGE2 (final conc. 6 nM) are transferred into the assay plate. Plate is incubated 30 minutes at room temperature. Five μl of each donor (anti-cAMP cryptate) and acceptor (cAMP-d2) are added and the plate is incubated another hour at room temperature in the dark and then read using a BMG LABTECH PHERAstar reader (Excitation:337 nm, Emission:620 and 665 nm).
(§13) The obtained Delta F(fluorescence) values (665 nm/620 nM) are converted into % cAMP values using the measurements of the cAMP calibrator provided in the kit. For each compound concentration the percentage of cAMP compared to DMSO control value as average±STDEV (each concentration is measured in duplicate) is calculated.
as §7

EP2 receptor = target: T4, EP2 receptor (Homo sapiens, UniProt P43116); assay: hEP2 cAMP assay (SF295 glioblastoma cells, HTRF cAMP, PGE2 stimulation); conditions: antagonistic activity
T4 construct: SF295 glioblastoma cells express high endogenous EP2 and no EP4; host or cells: SF295 glioblastoma cells
T4 sequence (P43116 whole entry): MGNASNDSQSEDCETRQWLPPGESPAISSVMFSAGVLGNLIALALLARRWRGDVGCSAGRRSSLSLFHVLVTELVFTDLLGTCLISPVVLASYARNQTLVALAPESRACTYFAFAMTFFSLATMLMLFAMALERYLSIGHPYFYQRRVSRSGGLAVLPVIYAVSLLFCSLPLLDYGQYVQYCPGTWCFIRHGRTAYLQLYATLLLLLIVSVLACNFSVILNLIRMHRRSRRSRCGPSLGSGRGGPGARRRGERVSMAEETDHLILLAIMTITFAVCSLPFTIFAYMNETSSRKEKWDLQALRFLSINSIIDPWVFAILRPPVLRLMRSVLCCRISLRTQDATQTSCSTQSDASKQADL
Experimental: as §8, §9, §10
as §11, with “SF295” for “BT549”, “0503170)” for “0507282)”, “RPM1640” for “RPMI1640”
Stock solutions of test compounds are made at a concentration of 10 mM in DMSO, and serially diluted in DMSO to concentrations required for inhibition dose response curves (tested concentration range 30 μM-0.4 nM; 30 μM-0.015 nM or 1 μM-0.01 nM).
PGE2 (Cayman 14010, stock solution: 75 μM in DMSO) is used as agonist at 75 nM final concentration, corresponding to EC80.
as §12, with “conc. 75” for “conc. 6”, “reader (Excitation: 337” for “reader (Excitation:337”, “nm, Emission: 620” for “nm, Emission:620”
as §13, with “F (fluorescence)” for “F(fluorescence)”
as §7

T1 sequence (P43116 whole entry): as above

Row | SMILES | IC50 (PTGER2 (EP2)) | IC50 (PTGER4 (EP4)) | IC50 (EP4 receptor) | IC50 (EP2 receptor)
1 | COc1cc(Cl)cc2c(CCNc3cc(-c4cc(C)c(C(=O)O)s4)ncn3)c(C)oc12 [Example 1, 5-{6-[2-(5-Chloro-7-methoxy-2-methyl-benzofuran-3-yl)-ethylamino]-pyrimidin-4-yl}-3-methyl-thiophene-2-carboxylic acid] | 59 nM | 142 nM | 22 nM | –
2 | Cc1sc2c(Cl)ccc(Cl)c2c1CCNc1cc(-c2ccc(C(=O)O)c(O)c2)ncn1 [Example 11, 4-{6-[2-(4,7-Dichloro-2-methyl-benzo[b]thiophen-3-yl)-ethylamino]-pyrimidin-4-yl}-2-hydroxy-benzoic acid] | 99 nM | 3090 nM | – | 71 nM
3 | CCOc1cc(-c2cc(NCCc3c(C#N)sc4c(C)cc(F)cc34)ncn2)sc1C(=O)O [Example 26, 5-{6-[2-(2-Cyano-5-fluoro-7-methyl-benzo[b]thiophen-3-yl)-ethylamino]-pyrimidin-4-yl}-3-ethoxy-thiophene-2-carboxylic acid] | – | – | 2 nM | 1 nM
4 | Cc1sc2c(C)cc(F)cc2c1CCNc1cc(-c2cc(OCCO)c(C(=O)O)s2)ncn1 [Example 41, 5-{6-[2-(5-Fluoro-2,7-dimethyl-benzo[b]thiophen-3-yl)-ethylamino]-pyrimidin-4-yl}-3-(2-hydroxy-ethoxy)-thiophene-2-carboxylic acid] | – | – | 42 nM | 13 nM
5 | CSc1cc(-c2cc(NCCc3c(C)sc4ccccc34)ncn2)cc(F)c1C(=O)O [Example 48, 2-Fluoro-4-{6-[2-(2-methyl-benzo[b]thiophen-3-yl)-ethylamino]-pyrimidin-4-yl}-6-methylsulfanyl-benzoic acid] | 5 nM | 3380 nM | – | 2 nM
6 | CSc1cc(-c2cc(NCCc3c(C)oc4ccccc34)ncn2)cc(F)c1C(=O)O [Example 49, 2-Fluoro-4-{6-[2-(2-methyl-benzofuran-3-yl)-ethylamino]-pyrimidin-4-yl}-6-methylsulfanyl-benzoic acid] | 2 nM | 3620 nM | – | 1 nM
7 | CSc1cc(-c2cc(NCCc3c(C)oc4ccccc34)ncn2)cc(Cl)c1C(=O)O [Example 51, 2-Chloro-4-{6-[2-(2-methyl-benzofuran-3-yl)-ethylamino]-pyrimidin-4-yl}-6-methylsulfanyl-benzoic acid] | 10 nM | 3490 nM | – | 1 nM
8 | CCOc1cc(-c2cc(NCCc3c(C)oc4ccccc34)ncn2)ccc1C(=O)O [Example 73, 2-Ethoxy-4-{6-[2-(2-methyl-benzofuran-3-yl)-ethylamino]-pyrimidin-4-yl}-benzoic acid] | 5 nM | 3500 nM | – | 4 nM
9 | COc1cc(-c2cc(NCCc3c(C)sc4c(C)ccc(F)c34)ncn2)cc(C)c1C(=O)O [Example 74, 4-{6-[2-(4-Fluoro-2,7-dimethyl-benzo[b]thiophen-3-yl)-ethylamino]-pyrimidin-4-yl}-2-methoxy-6-methyl-benzoic acid] | – | – | 644 nM | 273 nM
10 | Cc1sc2c(C)cccc2c1CCNc1cc(-c2ccc3oc(C(=O)O)cc3c2)ncn1 [Example 78, 5-{6-[2-(2,7-Dimethyl-benzo[b]thiophen-3-yl)-ethylamino]-pyrimidin-4-yl}-benzofuran-2-carboxylic acid] | – | – | 87 nM | 7 nM
11 | CCOc1cc(-c2cc(NCCc3csc4ccccc34)ncn2)ccc1OCC(=O)O [Example 125, {4-[6-(2-Benzo[b]thiophen-3-yl-ethylamino)-pyrimidin-4-yl]-2-ethoxy-phenoxy}-acetic acid] | – | – | 426 nM | 359 nM
12 | CCOc1cc(-c2cc(NCCc3c(C)sc4c(C)cc(F)cc34)ncn2)ccc1NCC(=O)O [Example 128, (2-Ethoxy-4-{6-[2-(5-fluoro-2,7-dimethyl-benzo[b]thiophen-3-yl)-ethylamino]-pyrimidin-4-yl}-phenylamino)-acetic acid] | – | – | 82 nM | 37 nM

— patent US11325899B2, “Benzofurane and benzothiophene derivatives as PGE2 receptor modulators” (IDORSIA PHARMACEUTICALS LTD, priority 2017, dated 2022)
